Experiment [1] addresses T1, full length EB1 (His-tagged) (Homo sapiens, UniProt Q15691).
T1 construct: gene MAPRE1; full length 268 residues, His-tagged, recombinant, purified as in authors' earlier work; dimer
T1 sequence (Q15691 1-268): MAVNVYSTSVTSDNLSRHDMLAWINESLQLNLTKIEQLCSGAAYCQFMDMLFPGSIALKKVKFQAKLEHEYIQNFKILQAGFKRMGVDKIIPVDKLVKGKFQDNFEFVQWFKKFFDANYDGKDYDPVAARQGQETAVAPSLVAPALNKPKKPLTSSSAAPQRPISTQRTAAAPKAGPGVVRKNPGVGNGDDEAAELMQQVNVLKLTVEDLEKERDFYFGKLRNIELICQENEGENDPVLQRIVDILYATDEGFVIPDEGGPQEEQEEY
The experiment can be described thus: isothermal titration calorimetry. Conditions: 80 mM PIPES, 1 mM EGTA, 1 mM MgCl2, pH 6.9, 25 °C; N fixed at 2; range over three experiments, printed jointly for EB1n and full length; saturation incomplete. It counts as binding. A general note: In ITC the heat of successive injections is recorded.

Experiment [2] deals with T2, EB1n (EB1 N-terminus, residues 1-151) (Homo sapiens, UniProt Q15691).
T2 construct: gene MAPRE1; N-terminal fragment 1-151 containing CH domain (1-130); pET3d, E. coli BL21(DE3), untagged, cation exchange; mainly monomer
T2 sequence (Q15691 1-151): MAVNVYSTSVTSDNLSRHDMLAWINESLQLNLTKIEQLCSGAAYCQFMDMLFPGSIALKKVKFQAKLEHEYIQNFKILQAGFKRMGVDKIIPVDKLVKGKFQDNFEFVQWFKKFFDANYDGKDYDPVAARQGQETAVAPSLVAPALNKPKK
As to the kind of experiment: isothermal titration calorimetry. It counts as binding. Conditions: 80 mM PIPES, 1 mM EGTA, 1 mM MgCl2, pH 6.9, 25 °C; N fitted freely; range over three experiments, printed jointly for EB1n and full length; noisy data; NMR in other buffers gives mM Kd.

For experiment [3], the target named is Rhodamine labeled microtubules polymerized with GTPγS (UniProt P02550 1-451, rhodamine on part of the tubulin (3 µM rhodamine-labeled tubulin with 40 µM tubulin)); which chain carries it is not stated | rhodamine on part of the tubulin (3 µM rhodamine-labeled tubulin with 40 …). The experiment can be described thus: confocal fluorescence imaging of purified EB1-GFP on microtubules held on coverslips; rhodamine microtubules (GTPγS) on poly-lysine coverslips, washed free of GTPγS; 10 µM EB1-GFP protein added, 10 min, 37 °C, BRB80 pH 6.9; fixed with 1% glutaraldehyde; GFP intensity per pixel along microtubules. To be noted: both partners purified.

Experiment [4] concerns the target Microtubules polymerized from tubulin with GTPγS (UniProt P02550 1-451). As to the kind of experiment: binding to microtubules held on coverslips, wash, SDS-PAGE of the bound protein; microtubules (40 µM tubulin, GTPγS) on poly-lysine coverslips, washed; 10 µM EB1-GFP protein added, 10 min at 37 °C (15 min in the legend), BRB80; unbound protein washed off; Coomassie bands normalized against tubulin; the paper calls it sedimentation. To be noted: both partners purified.

This note sets out measurements from paper PMC6023887, “GTP-binding facilitates EB1 recruitment onto microtubules by relieving its auto-inhibition” (Scientific Reports, 2018).

Numbering of substitutions follows the chain as printed. Numbers in names are those of the source.

In the case of `Nc1nc2c(ncn2[C@@H]2O[C@H](COP(=O)(O)OP(=O)(O)OP(=O)(O)O)[C@@H](O)[C@H]2O)c(=O)[nH]1` [GTP], the Kd in experiment [1] and in experiment [2] was ~10 to ~30 µM throughout.

B1: EB1 R17A H18A-GFP (natural protein, human, UniProt Q15691 1-268, looked up)
chain: T1 sequence (Q15691 1-268) with R17A, H18A
notes: EB1, human, full-length cDNA with R17A and H18A; Made with the WT EB1-GFP pET22b eGFP plasmid as template; also called R17A H18A EB1-GFP; mutant EB1-GFP; source: E. coli BL21 (DE3), purified (Ni-NTA)
Regarding B1, the “fold increase of GFP intensity per pixel on microtubules against wild-type EB1-GFP” value in experiment [3] is ~2 fold. Besides, the “fold amount bound to microtubules against wild-type EB1” value in experiment [4] is ~1.5 fold.
